Assays:
P. aurifer = experiment: Field trapping Experiment 1, Rescue W•H•Y traps; assay type: in vivo, Polistes aurifer; conditions: Exp 1; HIPV added to WHY attractant in the top chamber, or WHY alone
Description: (§1) Three field trapping experiments were carried out during late July to early August 2009, in residential and woody areas around Spokane, Wash., USA, using the newly marketed Rescue® W•H•Y traps (www.rescue.com). As used herein, the W•H•Y trap is a trap in accordance with the description of United States Patent Application Publication No. 2009/0151228. The W•H•Y trap has a top chamber and a bottom chamber. The top chamber is baited with two attractants—one of which is a solid contained in a vial (2-methyl-1-butanol) and the other a liquid mixed with water (acetic acid), herein referred to as the W•H•Y top attractant. The bottom chamber is baited with a liquid attractant (heptyl butyrate) poured onto a cotton pad, herein referred to as the W•H•Y bottom attractant. Separation of the top and bottom attractants (otherwise antagonistic to each other when released from the same chamber) in two chambers was a design feature of this trap and creates two focal attraction sources from one trap for different species of wasps, hornets, and yellowjackets. Traps were hung 1.5-2.0 m above the ground on either the fence or tree branches ca. 5 m apart within each trap line. For each trapping experiment, six sets of traps were deployed with their initial trap positions within each set being randomized. To minimize positional effects and obtain more replications, wasp collections and trap re-randomization were carried out when ≧10-20 wasps were caught in the best trap. Each replicate lasted several days depending on wasp flight activity. Captured wasps were removed from the traps and kept in the zip-bags before taking back to the laboratory for recording of the species, gender status, and catch.
(§2) Experiment 3 (Aug. 5-13, 2009) was conducted to determine the potential behavioral activity of different doses of (E)-4,8-dimethyl-1,3,7-nonatriene alone. The individual (or different doses) HIPVs were loaded into either polyethylene bags or centrifuge tube type of dispensers, and released from the top of the W•H•Y trap chamber. W•H•Y trap attractants (both top and bottom or top only) alone and water (top chamber only) were included in the test as positive and blank controls, respectively. The dispenser types, loading and release rates of the tested semiochemicals are described in Tables 1, 2 and 3.
(§3) Trap catch data were converted to proportion (P) of total captured wasps within each replicate. Data were then transformed by arcsin√P to meet the assumptions of normality and homogeneity of variances for ANOVA. Means were compared by ANOVA followed by the Ryan-Einot-Gabriel-Welsh (REGW) multiple Q test (SPSS 16.0 for Windows) at α=0.05.

V. pensylvanica = experiment: Field trapping Experiment 1, Rescue W•H•Y traps; assay type: in vivo, Vespula pensylvanica; conditions: Exp 1; HIPV added to WHY attractant in the top chamber, or WHY alone
Description: as §1, §2, §3

[1] = tested on: Podisus maculiventris antennae; experiment: GC-EAD of synthetic HIPVs on beneficial insect antennae; conditions: FIG. 6
Description: (§4) Aeration samples of the cherry branches (damaged or undamaged/slightly damaged) were injected (3 μl) splitless into a Varian CP-3800 GC equipped with a polar column (HP-INNOWax; 30 m×0.53 mm×1.0 μm film thickness; Agilent Technologies, Wilmington, Del., USA) and a 1:1 effluent splitter that allowed simultaneous flame ionization detection (FID) and electroantennographic detection (EAD) of the European paper wasp (Polistes dominulus) worker antennae to the separated volatile compounds. Helium was used as the carrier gas, and the injector and detector temperatures were 250° C. and 300° C., respectively. Column temperature was 50° C. for 1 min, rising to 240° C. at 10° C./min, and then held for 10 min. The outlet for the EAD was held in a humidified air stream flowing at 0.5 m/sec over the antennal preparation. EAD recordings were made using silver wire-glass capillary electrodes filled with Beadle-Ephrussi Ringer on freshly cut antennae. The antennal signals were stored and analyzed on a PC equipped with a serial IDAC interface box and the program EAD ver. 2.5 (Syntech, Hilversum, The Netherlands). In addition, GC-EAD responses to a synthetic mixture (100 ng/μl each) containing nine known HIPVs including cis-3-hexen-1-ol, cis-3-hexenyl acetate, trans-β-ocimene, (E)-4,8-dimethyl-1,3,7-nonatriene, linalool, methyl salicylate, geranyl acetate, trans-β-caryophyllene and trans-β-farnesene were tested on the P. dominulus workers. (See FIG. 2.) The same chemicals were also tested on beneficial insect antennae from Chrysopa oculata, Myrmeleon crudelis, Podisus maculiventris, and Hippodarnia convergens. (See FIG. 6.) Antennally active peaks in the aeration samples were identified by GC-MS on an HP 6890 GC series coupled with an HP 5973 Mass Selective Detector using the same type of GC column and conditions as described above. Compounds were identified by comparison of retention times with those of authentic standards and with mass spectra of standards.

[2] = tested on: Hippodarnia convergens antennae; experiment: as above; conditions: FIG. 6
Description: as §4

[3] = tested on: Myrmeleon crudelis antennae; experiment: as above; conditions: FIG. 6
Description: as §4

[4] = tested on: Chrysopa oculata antennae; experiment: as above; conditions: FIG. 6
Description: as §4

P. dominulus = experiment: Field trapping Experiment 1, Rescue W•H•Y traps; assay type: in vivo, Polistes dominulus; conditions: Exp 1; HIPV added to WHY attractant in the top chamber, or WHY alone
Description: as §1, §2, §3

[5] = tested on: P. dominulus workers antennae; experiment: GC-EAD of synthetic mixture of known HIPVs; set-up: species or system Polistes dominulus; conditions: 100 ng/μl each in hexane
Description: as §4

V. atropilosa = assay type: in vivo, Vespula atropilosa; conditions: Exp 1; HIPV added to WHY attractant in the top chamber, or WHY alone
V. vulgaris = experiment: Field trapping Experiment 1, Rescue W•H•Y traps; assay type: in vivo, Vespula vulgaris; conditions: Exp 1; HIPV added to WHY attractant in the top chamber, or WHY alone
Description: as §1, §2, §3

D. arenaria = experiment: Field trapping Experiment 1, Rescue W•H•Y traps; assay type: in vivo, Dolichovespula arenaria; conditions: Exp 1; HIPV added to WHY attractant in the top chamber, or WHY alone
Description: as §1
Experiment 1 (Jul. 22-30, 2009) tested ten synthetic HIPV candidates [(E)-2-hexenal, (Z)-3-hexen-1-ol, (Z)-3-hexenyl acetate, cis-ocimene, linalool, methyl salicylate, geranyl acetate, trans-β-caryophyllene, trans-β-farnesene and (E)-4,8-dimethyl-1,3,7-nonatriene], including several paper wasp EAD-active compounds (see FIG. 2 for details), to determine their potential synergistic effect on the Rescue® W•H•Y trap attractants to paper wasps, yellowjackets, and hornets. Experiment 2 (Aug. 5-13, 2009) tested behavioral responses of the paper wasps and yellowjackets to the Rescue® W•H•Y trap attractants (top attractants only) and its combination with (E)-4,8-dimethyl-1,3,7-nonatriene, one of the EAD-active and behaviorally significant HIPVs, in a dose-response fashion. Experiment 3 (Aug. 5-13, 2009) was conducted to determine the potential behavioral activity of different doses of (E)-4,8-dimethyl-1,3,7-nonatriene alone. The individual (or different doses) HIPVs were loaded into either polyethylene bags or centrifuge tube type of dispensers, and released from the top of the W•H•Y trap chamber. W•H•Y trap attractants (both top and bottom or top only) alone and water (top chamber only) were included in the test as positive and blank controls, respectively. The dispenser types, loading and release rates of the tested semiochemicals are described in Tables 1, 2 and 3.
as §3

Compound: CC/C=C\CCOC(C)=O [Z-3-Hexenyl Acetate, (Z)-3-hexenyl acetate]
- Total Paper Wasps P. aurifer (P. aurifer): 9
- Total Yellowjacket Catches V. pensylvanica (V. pensylvanica): 311
- EAD-response [1]: strong EAD-responses
- EAD-response [2]: strong EAD-responses
- EAD-response [3]: strong EAD-responses
- EAD-response [4]: strong EAD-responses
- Total Paper Wasps P. dominulus (P. dominulus): 40
- EAD response of worker antennae [5]: responded consistently
- Total Yellowjacket Catches V. atropilosa (V. atropilosa): 0
- Total Yellowjacket Catches V. vulgaris (V. vulgaris): 34
- Total Yellowjacket Catches D. arenaria (D. arenaria): 8

Compound: C=C/C=C(\C)CCC=C(C)C [(E)-4,8-dimethyl-1,3,7-nonatriene]
- Total Paper Wasps P. aurifer (P. aurifer): 12
- Total Yellowjacket Catches V. pensylvanica (V. pensylvanica): 463
- EAD-response [1]: strong EAD-responses
- EAD-response [2]: strong EAD-responses
- EAD-response [3]: strong EAD-responses
- EAD-response [4]: strong EAD-responses
- Total Paper Wasps P. dominulus (P. dominulus): 152
- EAD response of worker antennae [5]: responded consistently
- Total Yellowjacket Catches V. atropilosa (V. atropilosa): 3
- Total Yellowjacket Catches V. vulgaris (V. vulgaris): 52
- Total Yellowjacket Catches D. arenaria (D. arenaria): 7

Compound: CC/C=C\CCO [Z-3-Hexanol, (Z)-3-hexen-1-ol]
- Total Paper Wasps P. aurifer (P. aurifer): 4
- Total Yellowjacket Catches V. pensylvanica (V. pensylvanica): 288
- Total Paper Wasps P. dominulus (P. dominulus): 25
- EAD response of worker antennae [5]: responded consistently
- Total Yellowjacket Catches V. atropilosa (V. atropilosa): 0
- Total Yellowjacket Catches V. vulgaris (V. vulgaris): 33
- Total Yellowjacket Catches D. arenaria (D. arenaria): 1

Compound: COC(=O)c1ccccc1O [Methyl Salicylate, methyl salicylate]
- Total Paper Wasps P. aurifer (P. aurifer): 6
- Total Yellowjacket Catches V. pensylvanica (V. pensylvanica): 226
- EAD-response [1]: strong EAD-responses
- EAD-response [2]: strong EAD-responses
- EAD-response [3]: strong EAD-responses
- EAD-response [4]: strong EAD-responses
- Total Paper Wasps P. dominulus (P. dominulus): 33
- EAD response of worker antennae [5]: responded consistently
- Total Yellowjacket Catches V. atropilosa (V. atropilosa): 4
- Total Yellowjacket Catches V. vulgaris (V. vulgaris): 23
- Total Yellowjacket Catches D. arenaria (D. arenaria): 4
